Assay results reported in paper PMC3523097 (Journal of medicinal chemistry, 2012).
Where “and” joins values, the source holds several entries; their conditions need not be identical. Identical values can stand only once. Entries after “also recorded” stand apart in the source; their conditions may differ. Like-named read-outs stand apart in the source and are kept apart here. Non-standard residues stand in square brackets, D forms with d. Residues, ends and D or L forms follow the SMILES beside them. Dmt = Cc1cc(O)cc(C)c1C[C@H](N)C(=O)O; dCit = NC(=O)NCCC[C@@H](N)C(=O)O; Nle = CCCC[C@H](N)C(=O)O

Tests used:
[1] = test system: mouse brain (blood-brain barrier); assay: Blood-to-brain influx, multiple time regression of [125I]-peptides; conditions: for Vbr (brain distribution volume): [125I]-labelled, CD-1 mice, mean ± SEM
[2] = test system: mouse tissues (spleen, liver, lungs, heart, kidneys, serum); assay: In vivo tissue biodistribution of [125I]-peptides; conditions: for Serum levels: 15 min after administration, rank in words
[3] = test system: CD-1 mice; assay: Antinociception after s.c. administration, radiant heat tail-flick test; type: in vivo; conditions: mouse tail-flick test; for ED50 (95% confidence limits): at the time of peak effect
[4] = target: T1, MOR (Rattus norvegicus, UniProt P33535); assay: MOR receptor binding, displacement of [3H]DAMGO from rat brain membranes; conditions: ratio of MOR/DOR/KOR Ki
T1 sequence (P33535 whole entry): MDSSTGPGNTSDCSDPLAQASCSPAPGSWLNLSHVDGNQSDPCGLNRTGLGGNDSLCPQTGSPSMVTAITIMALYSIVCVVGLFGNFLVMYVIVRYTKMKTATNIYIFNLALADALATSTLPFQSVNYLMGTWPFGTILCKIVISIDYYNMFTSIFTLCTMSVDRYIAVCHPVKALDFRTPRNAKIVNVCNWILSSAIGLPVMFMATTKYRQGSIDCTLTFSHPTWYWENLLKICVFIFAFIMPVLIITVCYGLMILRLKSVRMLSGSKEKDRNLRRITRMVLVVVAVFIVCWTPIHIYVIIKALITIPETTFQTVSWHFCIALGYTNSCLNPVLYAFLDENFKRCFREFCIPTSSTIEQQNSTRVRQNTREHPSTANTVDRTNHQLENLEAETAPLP

[5] = test system: CD-1 mice; assay: Antinociception after i.p. administration, 55 °C tail withdrawal; type: in vivo, mouse; conditions: for Antinociceptive activity, times higher than the antinociception of morphine: at the plateau decline phase; for Time of maximum antinociceptive activity post i.p. injection: mice; for Antinociceptive effect after i.p. injection, in words: Figure 3
[6] = target: T1, MOR; conditions: ratio of MOR/DOR/KOR Ki; cited from earlier work
[7] = test system: DOR (mouse vas deferens, MVD); conditions: read-out: MVD (δ) IC50; cited from earlier work
[8] = test system: MOR (guinea pig ileum, GPI); conditions: read-out: GPI (μ) IC50; cited from earlier work
[9] = test system: DOR (mouse vas deferens, MVD); assay: Mouse vas deferens; type: biochemical
[10] = cited from earlier work
[11] = incubated in sheep blood; cited from earlier work
[12] = test system: MOR (guinea pig ileum, GPI); assay: Guinea pig ileum; type: biochemical

Molecule	Vbr (brain distribution volume) [1]	Serum levels [2]	Duration of antinociceptive action [3]	Time of peak effect [3]	ED50 (95% confidence limits) [3]	Ki ratio μ/δ/κ [4]	further results
Cc1cc(O)cc(C)c1C[C@H](N)C(=O)N[C@H](CCCNC(=N)N)C(=O)N[C@@H](Cc1ccccc1)C(=O)N(C)[C@@H](CCCCN)C(N)=O [Peptide 12, H-Dmt-D-Arg-Phe-NMeLys-NH2]	21.99 ± 2.81 µL/g	intermediate	> 7 h	1 to 4 h and 2 h	0.13 (0.06-0.30) μmol/kg	1/1190/216	Antinociceptive activity, times higher than the antinociception of morphine [5]: 13 - 15; Time of maximum antinociceptive activity post i.p. injection [5]: 60 to 90 min
Cc1cc(O)cc(C)c1C[C@H](N)C(=O)N[C@H](CCCNC(=N)N)C(=O)N[C@H]1Cc2ccccc2CN(CC(N)=O)C1=O [Peptide 20, H-Dmt-D-Arg-Aba-Gly-NH2, reference compound]	24.01 ± 3.41 µL/g	intermediate	6 to 7 h	1 h	0.47 (0.18-1.2) μmol/kg		Ki ratio μ/δ/κ [6]: 1/4/787; Tissue distribution (percentage of mass-corrected injected dose), in words ([2]; [125I]-peptide, mice, Figure 2): higher kidney uptake; IC50 [7]: 420 pM; IC50 [8]: 320 pM; Antinociceptive effect after i.p. injection, in words [5]: slow and shallow antinociceptive response
CCCC[C@H](NC(=O)[C@H](Cc1ccccc1)NC(=O)[C@@H](CCCNC(N)=O)NC(=O)[C@@H](N)Cc1c(C)cc(O)cc1C)C(N)=O [Peptide 11, H-Dmt-D-Cit-Phe-Nle-NH2] (H-[Dmt][dCit]F[Nle]-NH2)						1/5/125	
Cc1cc(O)cc(C)c1C[C@H](N)C(=O)N[C@H](CCCNC(=N)N)C(=O)N[C@H]1Cc2ccccc2CN([C@@H](CCCCN)C(N)=O)C1=O [Peptide 16, H-Dmt-D-Arg-Aba-Lys-NH2]							MVD (δ) IC25 ([9]; IC25 given instead of IC50): 64 (IC25) nM
CCCC[C@H](NC(=O)[C@H](Cc1ccccc1)NC(=O)[C@@H](CCCNC(=N)N)NC(=O)[C@@H](N)Cc1c(C)cc(O)cc1C)C(N)=O [Peptide 9, H-Dmt-D-Arg-Phe-Nle-NH2] (H-[Dmt][dR]F[Nle]-NH2)					>6 µmol/kg	1/66/70	Antinociceptive effect after s.c. administration, in words [3]: no dose-related antinociception; also recorded: failed to reach a 50% effect after s.c. administration of 6 μmol/kg; Antinociceptive effect after i.p. injection, in words [5]: relatively low antinociceptive activity
CCCC[C@@H](C(N)=O)N(C)C(=O)[C@H](Cc1ccccc1)NC(=O)[C@@H](CCCNC(=N)N)NC(=O)[C@@H](N)Cc1c(C)cc(O)cc1C [Peptide 13, H-Dmt-D-Arg-Phe-NMeNle-NH2]						1/62/55	
C[C@@H](NC(=O)[C@@H](N)Cc1ccc(O)cc1)C(=O)N[C@@H](Cc1ccccc1)C(=O)NCC(=O)N[C@@H](Cc1ccc(O)cc1)C(=O)N1CCC[C@H]1C(=O)N[C@@H](CO)C(N)=O [dermorphin, Tyr-D-Ala-Phe-Gly-Tyr-Pro-Ser-NH2, reference compound]							mean influx transfer constant (mean Kin) ([1]; I-125 labelled control, over 15 minutes for dermorphin): 0.173 ± 0.137 µL/g/min; Antinociceptive effect after i.p. injection, in words [5]: inability of dermorphin to induce a significant antinociceptive effect
CCCC[C@H](NC(=O)[C@H](Cc1ccccc1)NC(=O)[C@@H](CCCN=C(N)N)NC(=O)[C@@H](N)Cc1c(C)cc(O)cc1C)C(N)=O [Peptide 9, H-Dmt-D-Arg-Phe-Nle-NH2] (H-[Dmt][dR]F[Nle]-NH2)	27.43 ± 4.80 µL/g	lowest					
CCCC[C@@H](C(N)=O)N1Cc2ccccc2C[C@H](NC(=O)[C@@H](CCCNC(=N)N)NC(=O)[C@@H](N)Cc2c(C)cc(O)cc2C)C1=O [Peptide 17, H-Dmt-D-Arg-Aba-Nle-NH2]						1/17/3	
CN1CC[C@]23c4c5ccc(O)c4O[C@H]2[C@@H](O)C=C[C@H]3[C@H]1C5 [Morphine, reference compound]							Relative potency to Morphine ([3]; from ED50): 1
endomorphin-2							t1/2 in mouse plasma [10]: 4 to 7 min
Cc1cc(O)cc(C)c1C[C@H](N)C(=O)N[C@H](CCCNC(=N)N)C(=O)N[C@@H](Cc1ccccc1)C(=O)N[C@@H](CCCCN)C(N)=O [Peptide 1, H-Dmt-D-Arg-Phe-Lys-NH2, reference compound]	19.25 ± 1.02 µL/g	highest	6 to 7 h	2 h	0.15 (0.07-0.32) μmol/kg		Duration of antinociceptive action ([3]; listed as [Dmt^1]-DALDA): > 7 h; t1/2 in sheep blood [11]: 108 min; Time of maximum antinociceptive activity post i.p. injection [5]: 60 min
Cc1cc(O)cc(C)c1C[C@H](N)C(=O)N[C@H](CCCNC(N)=O)C(=O)N[C@@H](Cc1ccccc1)C(=O)N(C)[C@@H](CCCCN)C(N)=O [Peptide 14, H-Dmt-D-Cit-Phe-NMeLys-NH2]	17.13 ± 2.36 µL/g	intermediate	2 to 3 h	1 h	0.16 (0.07-0.36) μmol/kg	1/42/12	Antinociceptive activity, times higher than the antinociception of morphine [5]: 13 - 15; Time of maximum antinociceptive activity post i.p. injection [5]: 60 to 90 min
endomorphin-1							t1/2 in mouse plasma [10]: 4 to 7 min
Cc1cc(O)cc(C)c1C[C@H](N)C(=O)N[C@H](CCCNC(N)=O)C(=O)N[C@@H](Cc1ccccc1)C(=O)N[C@@H](CCCCN)C(N)=O [Peptide 10, H-Dmt-D-Cit-Phe-Lys-NH2]	27.12 ± 3.76 µL/g	intermediate	2 to 3 h	1 h	0.23 (0.10-0.55) μmol/kg	1/88/37	Time of maximum antinociceptive activity post i.p. injection [5]: 45 min
CCCC[C@@H](C(N)=O)N1Cc2ccccc2C[C@H](NC(=O)[C@@H](CCCNC(N)=O)NC(=O)[C@@H](N)Cc2c(C)cc(O)cc2C)C1=O [Peptide 19, H-Dmt-D-Cit-Aba-Nle-NH2]						1/3/12	DOR functional profile ([9]; in words): DOR full agonist; GPI (μ) IC35 ([12]; IC35 given instead of IC50): 0.78 (IC35) nM; MOR functional profile ([12]; in words): MOR partial agonist
